Measured values as given in patent US9302999B2, “Substituted triazoles as herbicides” (E. I. DU PONT DE NEMOURS AND COMPANY, priority 2012, dated 2016).
Read-outs that look alike come from different tables or passages of the source.

What was measured:
Assay type in all cases: in vivo
soybean (Glycine max) = test: Test C pre-/postemergence: soybean
Procedure, shortened: (§1)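 Visual injury scored 0–100 (100 = complete control) against untreated controls after 13–15 greenhouse days. Surfactant-containing solvent formulations applied either to soil after sowing (loam/sand) or over 1- to 4-leaf plants, 2–18 cm tall.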

[1] = system: barnyardgrass (Echinochloa crus-galli); test: Test A pre-/postemergence: barnyardgrass; details: for pest or weed control at 125 g/ha / pest or weed control at 500 g/ha: Echinochloa crus-galli, 240 h
Procedure, shortened: (§2)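 Soil medium was loam blended with sand; treatments pre- and postemergence were applied concurrently, postemergence at one- to two-leaf stage. Approximately ten days in greenhouse preceded visual comparison with untreated controls, scored 0 (no effect) to 100 (complete control).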

[2] = system: nutsedge, yellow (yellow nutsedge, Cyperus esculentus); test: Test C pre-/postemergence: nutsedge, yellow
Procedure, shortened: as §1

[3] = system: lambsquarters (Chenopodium album); test: Test C pre-/postemergence: lambsquarters
Procedure, shortened: as §1

[4] = system: crabgrass, large (large crabgrass, Digitaria sanguinalis); test: Test A pre-/postemergence: crabgrass, large; details: for pest or weed control at 125 g/ha / pest or weed control at 500 g/ha: Digitaria sanguinalis, 240 h
Procedure, shortened: as §2

[5] = system: wheat (Triticum aestivum); test: Test A pre-/postemergence: wheat; details: for plant injury at 125 g/ha / plant injury at 500 g/ha: Triticum aestivum, 240 h
Procedure, shortened: as §2

[6] = system: pigweed (Amaranthus retroflexus); test: Test A pre-/postemergence: pigweed; details: for pest or weed control at 125 g/ha / pest or weed control at 500 g/ha: Amaranthus retroflexus, 240 h
Procedure, shortened: as §2

[7] = system: winter wheat (Triticum aestivum); test: Test C pre-/postemergence: winter wheat
Procedure, shortened: as §1

[8] = system: ryegrass, Italian (Italian ryegrass, Lolium multiflorum); test: Test C pre-/postemergence: ryegrass, Italian
Procedure, shortened: as §1

[9] = system: foxtail, giant (giant foxtail, Setaria faberii); test: Test C pre-/postemergence: foxtail, giant
Procedure, shortened: as §1

corn (Zea mays) = test: Test A pre-/postemergence: corn
Procedure, shortened: as §2

[10] = Postemergence, 31 g ai/ha, scale 0 to 100 (0 no effect, 100 complete control)
[11] = Postemergence, 62 g ai/ha, scale 0 to 100 (0 no effect, 100 complete control)
[12] = Postemergence, 125 g ai/ha, scale 0 to 100, 0 no effect, 100 complete control
[13] = Postemergence, 250 g ai/ha, scale 0 to 100
[14] = Preemergence, 31 g ai/ha, scale of 0 to 100, 0 is no effect, 100 is complete control
[15] = Preemergence, 62 g ai/ha, scale of 0 to 100, 0 is no effect, 100 is complete control
[16] = Preemergence, 125 g ai/ha, scale 0 to 100, 0 no effect, 100 complete control
[17] = Preemergence, 250 g ai/ha, scale 0 to 100, 0 no effect, 100 complete control
[18] = Postemergence, 125 g ai/ha, 0 to 100 scale, 0 is no effect, 100 is complete control
[19] = Postemergence, 500 g ai/ha, visual rating on 0 to 100 scale (0 no effect, 100 complete control), approximately ten days
[20] = Preemergence, 125 g ai/ha, 0 to 100 scale where 0 is no effect and 100 is complete control
[21] = Preemergence, 500 g ai/ha, 0 to 100 scale (0 no effect, 100 complete control)

Compound: Cc1nn(-c2ccc(F)cc2)nc1Oc1ccnc(C(F)(F)F)c1 [Compound 129, 4-[[2-(4-fluorophenyl)-5-methyl-2H-1,2,3-triazol-4-yl]oxy]-2-(trifluoromethyl)pyridine]
- Plant response rating, Soybean (soybean (Glycine max); [10]): 20
- Plant response rating, Soybean (soybean (Glycine max); [11]): 40
- Plant response rating, Soybean (soybean (Glycine max); [12]): 70
- Plant response rating, Soybean (soybean (Glycine max); [13]): 75
- Plant response rating, Soybean (soybean (Glycine max); [14]): 0
- Plant response rating, Soybean (soybean (Glycine max); [15]): 0
- Plant response rating, Soybean (soybean (Glycine max); [16]): 10
- Plant response rating, Soybean (soybean (Glycine max); [17]): 40
- pest or weed control at 125 g/ha ([1]; post-emergence, Postemergence, 125 g ai/ha, 0 to 100 scale, 0 is no effect, 100 is complete control, read-out: Barnyardgrass plant response rating): 90%
- pest or weed control at 500 g/ha ([1]; post-emergence, Postemergence, 500 g ai/ha, visual rating on 0 to 100 scale (0 no effect, 100 complete control), approximately ten days, read-out: Barnyardgrass plant response rating): 90%
- pest or weed control at 125 g/ha ([1]; pre-emergence, Preemergence, 125 g ai/ha, 0 to 100 scale where 0 is no effect and 100 is complete control, read-out: Plant response rating, Barnyardgrass): 100%
- pest or weed control at 500 g/ha ([1]; pre-emergence, Preemergence, 500 g ai/ha, 0 to 100 scale (0 no effect, 100 complete control), read-out: Plant response rating, Barnyardgrass): 100%
- Plant response rating, Nutsedge, Yellow [2, 10]: 0
- Plant response rating, Nutsedge, Yellow [2, 11]: 0
- Plant response rating, Nutsedge, Yellow [2, 12]: 0
- Plant response rating, Nutsedge, Yellow [2, 13]: 0
- Plant response rating, Nutsedge, Yellow [2, 14]: 0
- Plant response rating, Nutsedge, Yellow [2, 15]: 0
- Plant response rating, Nutsedge, Yellow [2, 16]: 0
- Plant response rating, Nutsedge, Yellow [2, 17]: 5
- Plant response rating, Lambsquarters [3, 10]: 98
- Plant response rating, Lambsquarters [3, 11]: 98
- Plant response rating, Lambsquarters [3, 12]: 98
- Plant response rating, Lambsquarters [3, 13]: 100
- Plant response rating, Lambsquarters [3, 14]: 95
- Plant response rating, Lambsquarters [3, 15]: 95
- Plant response rating, Lambsquarters [3, 16]: 98
- Plant response rating, Lambsquarters [3, 17]: 100
- pest or weed control at 125 g/ha ([4]; post-emergence, Postemergence, 125 g ai/ha, 0 to 100 scale, 0 is no effect, 100 is complete control, read-out: Crabgrass, Large plant response rating): 90%
- pest or weed control at 500 g/ha ([4]; post-emergence, Postemergence, 500 g ai/ha, visual rating on 0 to 100 scale (0 no effect, 100 complete control), approximately ten days, read-out: Crabgrass, Large plant response rating): 90%
- pest or weed control at 125 g/ha ([4]; pre-emergence, Preemergence, 125 g ai/ha, 0 to 100 scale where 0 is no effect and 100 is complete control, read-out: Plant response rating, Crabgrass, Large): 100%
- pest or weed control at 500 g/ha ([4]; pre-emergence, Preemergence, 500 g ai/ha, 0 to 100 scale (0 no effect, 100 complete control), read-out: Plant response rating, Crabgrass, Large): 100%
- plant injury at 125 g/ha ([5]; post-emergence, Postemergence, 125 g ai/ha, 0 to 100 scale, 0 is no effect, 100 is complete control, read-out: Wheat plant response rating): 20%
- plant injury at 500 g/ha ([5]; post-emergence, Postemergence, 500 g ai/ha, visual rating on 0 to 100 scale (0 no effect, 100 complete control), approximately ten days, read-out: Wheat plant response rating): 30%
- plant injury at 125 g/ha ([5]; pre-emergence, Preemergence, 125 g ai/ha, 0 to 100 scale where 0 is no effect and 100 is complete control, read-out: Plant response rating, Wheat): 10%
- plant injury at 500 g/ha ([5]; pre-emergence, Preemergence, 500 g ai/ha, 0 to 100 scale (0 no effect, 100 complete control), read-out: Plant response rating, Wheat): 50%
- pest or weed control at 125 g/ha ([6]; post-emergence, Postemergence, 125 g ai/ha, 0 to 100 scale, 0 is no effect, 100 is complete control, read-out: Pigweed plant response rating): 100%
- pest or weed control at 500 g/ha ([6]; post-emergence, Postemergence, 500 g ai/ha, visual rating on 0 to 100 scale (0 no effect, 100 complete control), approximately ten days, read-out: Pigweed plant response rating): 100%
- pest or weed control at 125 g/ha ([6]; pre-emergence, Preemergence, 125 g ai/ha, 0 to 100 scale where 0 is no effect and 100 is complete control, read-out: Plant response rating, Pigweed): 100%
- pest or weed control at 500 g/ha ([6]; pre-emergence, Preemergence, 500 g ai/ha, 0 to 100 scale (0 no effect, 100 complete control), read-out: Plant response rating, Pigweed): 100%
- Plant response rating, Wheat [7, 10]: 20
- Plant response rating, Wheat [7, 11]: 25
- Plant response rating, Wheat [7, 12]: 30
- Plant response rating, Wheat [7, 13]: 40
- Plant response rating, Wheat [7, 14]: 0
- Plant response rating, Wheat [7, 15]: 20
- Plant response rating, Wheat [7, 16]: 30
- Plant response rating, Wheat [7, 17]: 60
- Plant response rating, Ryegrass, Italian [8, 10]: 5
- Plant response rating, Ryegrass, Italian [8, 11]: 15
- Plant response rating, Ryegrass, Italian [8, 12]: 30
- Plant response rating, Ryegrass, Italian [8, 13]: 60
- Plant response rating, Ryegrass, Italian [8, 14]: 60
- Plant response rating, Ryegrass, Italian [8, 15]: 90
- Plant response rating, Ryegrass, Italian [8, 16]: 90
- Plant response rating, Ryegrass, Italian [8, 17]: 95
- Plant response rating, Foxtail, Giant [9, 10]: 0
- Plant response rating, Foxtail, Giant [9, 11]: 20
- Plant response rating, Foxtail, Giant [9, 12]: 30
- Plant response rating, Foxtail, Giant [9, 13]: 65
- Plant response rating, Foxtail, Giant [9, 14]: 95
- Plant response rating, Foxtail, Giant [9, 15]: 98
- Plant response rating, Foxtail, Giant [9, 16]: 98
- Plant response rating, Foxtail, Giant [9, 17]: 98
- plant injury at 125 g/ha (corn (Zea mays); Zea mays, post-emergence, 240 h, Postemergence, 125 g ai/ha, 0 to 100 scale, 0 is no effect, 100 is complete control, read-out: Corn plant response rating): 30%
- plant injury at 500 g/ha (corn (Zea mays); Zea mays, post-emergence, 240 h, Postemergence, 500 g ai/ha, visual rating on 0 to 100 scale (0 no effect, 100 complete control), approximately ten days, read-out: Corn plant response rating): 40%
- Corn plant response rating (crop injury, 0 = no effect, 100 = complete kill) at 125 g/ha (corn (Zea mays); Zea mays, pre-emergence, 240 h, Preemergence, 125 g ai/ha, 0 to 100 scale where 0 is no effect and 100 is complete control): 50%
- Corn plant response rating (crop injury, 0 = no effect, 100 = complete kill) at 500 g/ha (corn (Zea mays); Zea mays, pre-emergence, 240 h, Preemergence, 500 g ai/ha, 0 to 100 scale (0 no effect, 100 complete control)): 60%

Compound: Cc1nn(-c2ccnc(C(F)(F)F)c2)nc1Cc1ccnc(C(F)(F)F)c1 [Compound 137]
- Plant response rating, Soybean (soybean (Glycine max); [10]): 40
- Plant response rating, Soybean (soybean (Glycine max); [11]): 55
- Plant response rating, Soybean (soybean (Glycine max); [12]): 55
- Plant response rating, Soybean (soybean (Glycine max); [13]): 60
- Barnyardgrass plant response rating [1, 18]: 70
- Barnyardgrass plant response rating [1, 19]: 90
- Plant response rating, Barnyardgrass [1, 20]: 50
- Plant response rating, Barnyardgrass [1, 21]: 70
- Plant response rating, Nutsedge, Yellow [2, 10]: 5
- Plant response rating, Nutsedge, Yellow [2, 11]: 10
- Plant response rating, Nutsedge, Yellow [2, 12]: 10
- Plant response rating, Nutsedge, Yellow [2, 13]: 15
- Plant response rating, Lambsquarters [3, 10]: 100
- Plant response rating, Lambsquarters [3, 11]: 100
- Plant response rating, Lambsquarters [3, 12]: 100
- Plant response rating, Lambsquarters [3, 13]: 100
- Crabgrass, Large plant response rating [4, 18]: 90
- Crabgrass, Large plant response rating [4, 19]: 90
- Plant response rating, Crabgrass, Large [4, 20]: 90
- Plant response rating, Crabgrass, Large [4, 21]: 90
- Plant response rating, Wheat [5, 18]: 20
- Wheat plant response rating [5, 19]: 30
- Plant response rating, Wheat [5, 20]: 0
- Plant response rating, Wheat [5, 21]: 0
- Plant response rating, Pigweed [6, 18]: 100
- Pigweed plant response rating [6, 19]: 100
- Plant response rating, Pigweed [6, 20]: 100
- Plant response rating, Pigweed [6, 21]: 100
- Plant response rating, Wheat [7, 10]: 10
- Plant response rating, Wheat [7, 11]: 15
- Plant response rating, Wheat [7, 12]: 30
- Plant response rating, Wheat [7, 13]: 35
- Plant response rating, Ryegrass, Italian [8, 10]: 35
- Plant response rating, Ryegrass, Italian [8, 11]: 55
- Plant response rating, Ryegrass, Italian [8, 12]: 65
- Plant response rating, Ryegrass, Italian [8, 13]: 90
- Plant response rating, Foxtail, Giant [9, 10]: 10
- Plant response rating, Foxtail, Giant [9, 11]: 40
- Plant response rating, Foxtail, Giant [9, 13]: 50
- Corn plant response rating (corn (Zea mays); [18]): 20
- Corn plant response rating (corn (Zea mays); [19]): 30
- Plant response rating, Corn (corn (Zea mays); [20]): 0
- Plant response rating, Corn (corn (Zea mays); [21]): 0
